Source: ChEMBL document CHEMBL3044879, “Design, synthesis, and preliminary in vitro and in vivo pharmacological evaluation of 4-{4-[2-(4-(2-substitutedquinoxalin-3-yl)piperazin-1-yl)ethyl]phenyl}thiazoles as atypical antipsychotic agents” (Med Chem Res, 2013)
Calls of active or inactive are those of the source. No cut-off for these calls is given here.

Assays:
Mus musculus [1] = test: In vivo inhibition of dopaminergic D2 receptor in Swiss albino Mus musculus (mouse) at 10 mg/kg, ip relative to vehicle-treated control; format: functional; details: route intraperitoneal
Mus musculus [2] = test: In vivo inhibition of 5-HT2A receptor in Swiss albino Mus musculus (mouse) at 10 mg/kg, ip relative to vehicle-treated control; format: functional; details: route intraperitoneal
[3] = target: D(2) dopamine receptor (Rattus norvegicus) (UniProt P61169); test: Displacement of [3H]spiperone from dopaminergic D2 receptor in Rattus norvegicus (rat) straitum membrane homogenates up to 1 uM after 60 min by liquid scintillation counting analysis
Mus musculus [4] = test: Antagonist activity at mesolimbic dopaminergic D2 receptor in Swiss albino Mus musculus (mouse) assessed as inhibition of apomorphine-induced cage climbing behavior at 10 mg/kg, ip administered 1 hr prior to apomorphine challenge measured after 20 min relative to vehicle-treated control; format: functional; details: route intraperitoneal
Mus musculus [5] = test: Selectivity ratio of inhibition of 5-HT2A receptor in Swiss albino Mus musculus (mouse) to inhibition of dopaminergic D2 receptor in Swiss albino Mus musculus (mouse) at 10 mg/kg, ip; format: functional; details: route intraperitoneal
[6] = target: D(2) dopamine receptor (Rattus norvegicus) (UniProt P61169); test: Displacement of [3H]spiperone from D2 receptor in Rattus norvegicus (rat) straitum membrane homogenates at 10 uM after 60 min by liquid scintillation counting analysis
[7] = target: 5-hydroxytryptamine receptor 2A (Rattus norvegicus) (UniProt P14842); test: Displacement of [3H]ketanserin from 5-HT2A receptor in Rattus norvegicus (rat) cortex membrane homogenates up to 1 uM after 90 min by liquid scintillation counting analysis
[8] = target: 5-hydroxytryptamine receptor 2A (Rattus norvegicus) (UniProt P14842); test: Displacement of [3H]ketanserin from 5-HT2A receptor in Rattus norvegicus (rat) cortex membrane homogenates at 10 uM after 90 min by liquid scintillation counting analysis
Mus musculus [9] = test: Antagonist activity at mesolimbic dopaminergic D2 receptor in Swiss albino Mus musculus (mouse) assessed as inhibition of apomorphine-induced cage climbing behavior at 10 mg/kg, ip administered 1 hr prior to apomorphine challenge measured after 30 min relative to vehicle-treated control; format: functional; details: route intraperitoneal
Mus musculus [10] = test: Antagonist activity at nigrostriatal dopaminergic D2 receptor in Swiss albino Mus musculus (mouse) assessed as maximum average cataleptic time at 10 mg/kg, ip after 1 to 5 hr relative to vehicle-treated control; format: organism-based; set-up: dose 10 mg/kg, route intraperitoneal; details: in vivo
Mus musculus [11] = test: Antagonist activity at mesolimbic dopaminergic D2 receptor in Swiss albino Mus musculus (mouse) assessed as inhibition of apomorphine-induced cage climbing behavior at 10 mg/kg, ip administered 1 hr prior to apomorphine challenge measured after 10 min relative to vehicle-treated control; format: functional; details: route intraperitoneal
Mus musculus [12] = test: Antagonist activity at central serotonergic 5-HT2A receptor in Swiss albino Mus musculus (mouse) assessed as inhibition of quipazine meleate-induced head twiches at 10 mg/kg, ip administered 1 hr prior to quipazine meleate challenge measured after 30 to 40 min relative to vehicle-treated control; format: functional; details: route intraperitoneal
[13] = target: D(2) dopamine receptor (Rattus norvegicus) (UniProt P61169); test: Displacement of [3H]spiperone from D2 receptor in Rattus norvegicus (rat) straitum membrane homogenates at 100 uM after 60 min by liquid scintillation counting analysis
Mus musculus [14] = test: Antagonist activity at mesolimbic dopaminergic D2 receptor in Swiss albino Mus musculus (mouse) assessed as inhibition of apomorphine-induced cage climbing behavior at 0.6 mg/kg, ip administered 1 hr prior to apomorphine challenge measured after 30 min relative to vehicle-treated control; format: functional; details: route intraperitoneal
Mus musculus [15] = test: Antagonist activity at mesolimbic dopaminergic D2 receptor in Swiss albino Mus musculus (mouse) assessed as inhibition of apomorphine-induced cage climbing behavior at 0.6 mg/kg, ip administered 1 hr prior to apomorphine challenge measured after 10 min relative to vehicle-treated control; format: functional; details: route intraperitoneal
Mus musculus [16] = test: Antagonist activity at mesolimbic dopaminergic D2 receptor in Swiss albino Mus musculus (mouse) assessed as inhibition of apomorphine-induced cage climbing behavior at 0.6 mg/kg, ip administered 1 hr prior to apomorphine challenge measured after 20 min relative to vehicle-treated control; format: functional; details: route intraperitoneal
Mus musculus [17] = test: Antagonist activity at nigrostriatal dopaminergic D2 receptor in Swiss albino Mus musculus (mouse) assessed as maximum average cataleptic time at 0.6 mg/kg, ip after 1 to 5 hr relative to vehicle-treated control; format: organism-based; set-up: dose 0.6 mg/kg, route intraperitoneal; details: in vivo
Mus musculus [18] = test: Antagonist activity at central serotonergic 5-HT2A receptor in Swiss albino Mus musculus (mouse) assessed as inhibition of quipazine meleate-induced head twiches at 0.6 mg/kg, ip administered 1 hr prior to quipazine meleate challenge measured after 30 to 40 min relative to vehicle-treated control; format: functional; details: route intraperitoneal

Chain of D(2) dopamine receptor (Rattus norvegicus) (P61169 whole entry): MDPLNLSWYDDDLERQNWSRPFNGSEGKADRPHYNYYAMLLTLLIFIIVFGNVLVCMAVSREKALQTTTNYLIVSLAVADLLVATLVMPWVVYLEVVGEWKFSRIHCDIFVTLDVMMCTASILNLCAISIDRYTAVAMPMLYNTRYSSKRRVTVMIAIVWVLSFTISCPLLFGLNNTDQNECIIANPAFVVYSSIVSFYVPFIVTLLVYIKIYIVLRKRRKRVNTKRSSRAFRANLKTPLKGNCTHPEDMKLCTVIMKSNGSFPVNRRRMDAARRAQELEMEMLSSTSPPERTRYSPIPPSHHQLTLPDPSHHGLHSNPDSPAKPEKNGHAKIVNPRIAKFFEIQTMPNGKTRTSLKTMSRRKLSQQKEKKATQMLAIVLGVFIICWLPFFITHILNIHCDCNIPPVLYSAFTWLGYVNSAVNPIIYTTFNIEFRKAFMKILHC
Chain of 5-hydroxytryptamine receptor 2A (Rattus norvegicus) (P14842 whole entry): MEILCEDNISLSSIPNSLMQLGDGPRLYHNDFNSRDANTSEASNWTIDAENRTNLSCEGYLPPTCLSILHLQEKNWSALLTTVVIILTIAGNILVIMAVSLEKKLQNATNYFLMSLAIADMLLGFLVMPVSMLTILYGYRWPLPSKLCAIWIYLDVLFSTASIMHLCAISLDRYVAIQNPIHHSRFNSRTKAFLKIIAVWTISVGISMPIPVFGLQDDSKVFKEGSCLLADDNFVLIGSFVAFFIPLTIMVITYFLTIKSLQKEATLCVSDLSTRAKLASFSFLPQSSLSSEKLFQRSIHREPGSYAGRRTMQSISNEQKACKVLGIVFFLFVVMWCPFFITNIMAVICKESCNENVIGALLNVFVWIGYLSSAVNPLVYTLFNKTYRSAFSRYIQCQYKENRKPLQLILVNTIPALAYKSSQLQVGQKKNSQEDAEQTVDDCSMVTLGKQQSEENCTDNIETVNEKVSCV

Row | inhibition [3] | inhibition [6] | inhibition [7] | inhibition [8] [%] | inhibition [13] [%] | Compound | Imax (Mus musculus [1]) [%] | inhibition in vivo at 10 mg/kg (Mus musculus [2]) [%] | inhibition in vivo at 10 mg/kg (Mus musculus [4]) [%] | Selectivity ratio (Mus musculus [5]) | inhibition in vivo at 10 mg/kg (Mus musculus [9]) [%] | Time (Mus musculus [10]) [s] | inhibition in vivo at 10 mg/kg (Mus musculus [11]) [%] | inhibition in vivo at 10 mg/kg (Mus musculus [12]) [%] | inhibition in vivo at 0.6 mg/kg (Mus musculus [14]) [%] | inhibition in vivo at 0.6 mg/kg (Mus musculus [15]) [%] | inhibition in vivo at 0.6 mg/kg (Mus musculus [16]) [%] | Time (Mus musculus [17]) [s] | inhibition in vivo at 0.6 mg/kg (Mus musculus [18]) [%]
1 | inactive | inactive | inactive | 49 | 24 | COc1nc2ccccc2nc1N1CCN(CCc2ccc(-c3csc(N)n3)cc2)CC1 | 65 | 12 | 60 | 0.1846 | 65 | 14.12 | 60 | 12 |  |  |  |  | 
2 | inactive | inactive | inactive | 51 | 26 | Nc1nc(-c2ccc(CCN3CCN(c4cnc5ccccc5n4)CC3)cc2)cs1 | 75 | 15 | 75 | 0.2 | 65 | 9.21 | 60 | 15 |  |  |  |  | 
3 | inactive | inactive | inactive | 68 | 82 | COc1nc2ccccc2nc1N1CCN(CCc2ccc(-c3csc(C)n3)cc2)CC1 | 85 | 62 | 70 | 0.7294 | 65 | 6.25 | 85 | 62 |  |  |  |  | 
4 |  |  |  |  |  | Cc1nc2n(c(=O)c1CCN1CCC(c3noc4cc(F)ccc34)CC1)CCCC2 [RISPERIDONE] | 91 | 100 |  | 1.0989 |  |  |  |  | 90 | 91 | 91 | 2.54 | 100
